Experimental findings from patent US11613538B2, “Method of inhibiting or reducing a viral infection” (PTC Therapeutics, Inc., priority 2009, dated 2023) are described below.

The structures appear in SMILES notation.

A word on the EC50: it is the concentration needed to bring the measured effect to its halfway point. Read a high EC50 as a less potent agent.

The subject of the assay is hypoxia-induced VEGF production in HeLa cells. The assay can be described thus: cells. Type of assay: cell-based, human. The following applies: Homo sapiens, HeLa.
On to `Cc1cc(NCCOc2ccc(C3c4[nH]c5ccc(Cl)cc5c4CCN3C(=O)OCC(C)C)cc2)on1` (stereo not shown) [Compound 1405], for which the 50% effective concentration (EC50) lay in the range of 40 to 200 nM.
Compound `COc1ccc(C2c3[nH]c4ccc(S(C)(=O)=O)cc4c3CCN2C(=S)Oc2ccc(C)cc2)cc1` (stereo not shown) [Compound 1503] returned an EC50 of more than 1000 nM.
Next, `CCOC(=O)N1CCc2c([nH]c3ccc(Cl)cc23)[C@@H]1c1ccc(Oc2cnc(N)cn2)cc1` [Compound 1655]: 40 to 200 nM.
`O[C@@H](COc1ccc([C@H]2c3[nH]c4ccc(Cl)cc4c3CCN2c2ncccn2)cc1)CN1CCCCC1` [Compound 1313] registered an EC50 of 8 to 40 nM.
For `CC(C)COC(=O)N1CCc2c([nH]c3ccc(Cl)cc23)C1c1ccc(OCC[C@H](O)CO)cc1` (stereo partly shown) [Compound 1175] the value was 8 to 40 nM; for `O=C(OCC1CCC1)N1CCc2c([nH]c3ccc(Cl)cc23)[C@@H]1c1ccc(O)cc1` [Compound 1370], 8 to 40 nM; for `CN1CCN(Cc2cnc(Oc3ccc([C@H]4c5[nH]c6ccc(Cl)cc6c5CCN4C(=O)Oc4ccc(Cl)cc4)cc3)s2)CC1` [Compound 1661], less than 8 nM.
Next, `CCOC(=O)N1CCc2c([nH]c3ccc(Cl)cc23)C1c1ccc(OCC(O)CNC(=O)OCCOC)cc1` (stereo not shown) [Compound 1472]: less than 8 nM; `CCOC(=O)N1CCc2c([nH]c3ccc([S+](C)[O-])cc23)C1c1ccc(OC)cc1` (stereo not shown) [Compound 1488]: more than 1000 nM; `O=C1CN(CCCOc2ccc(C3c4[nH]c5ccc(Cl)cc5c4CCN3C(=O)Oc3ccc(Cl)cc3)cc2)C(=O)N1` (stereo not shown) [Compound 1672]: less than 8 nM.
For `CCCN(CCC)CCCOc1ccc([C@H]2c3[nH]c4ccc(Cl)cc4c3CCN2C(=O)Oc2ccc(Cl)cc2)cc1` [Compound 1234] the value was less than 8 nM; for `CCC(CO)(CO)COc1ccc(C2c3[nH]c4ccc(Br)cc4c3CCN2C(=O)OCC(C)C)cc1` (stereo not shown) [Compound 1356], less than 8 nM.
`CCOC(=O)N1CCc2c([nH]c3ccc(Cl)cc23)C1c1ccc(OCC2OCCO2)cc1` (stereo not shown) [Compound 1033]: the EC50 fell in the range of 8 to 40 nM.
Next, `CC(CO)(CO)COc1ccc([C@H]2c3[nH]c4ccc(Cl)cc4c3CCN2C(=O)OC2CCCC2)cc1` [Compound 1321]: less than 8 nM.
For `COC(=O)N1CCc2c([nH]c3ccc(Cl)cc23)C1c1ccc(OCCCN2CCN(C)CC2)cc1` (stereo not shown) [Compound 1101] the value was 40 to 200 nM.
Next, `CC(C)(C)OC(=O)N1CCc2c([nH]c3ccc(Cl)cc23)[C@@H]1c1ccc(OCCCn2nccn2)cc1` [Compound 1240]: less than 8 nM; `COc1ccc(C2c3[nH]c4ccc(Cl)cc4c3CCN2c2nc(-c3cccnc3)cs2)cc1` (stereo not shown) [Compound 1592]: 40 to 200 nM; `CC(C)OC(=O)N1CCc2c([nH]c3ccc(Br)cc23)C1c1ccc(OCC[C@H](O)CO)cc1` (stereo partly shown) [Compound 1346]: less than 8 nM.
On to `CC(C)COC(=O)N1CCc2c([nH]c3ccc(Cl)cc23)C1c1ccc(OCC2OCCO2)cc1` (stereo not shown) [Compound 1037], for which the EC50 was less than 8 nM.
For `O=C(COc1ccc(C2c3[nH]c4ccc(Cl)cc4c3CCN2C(=O)Oc2ccc(F)cc2)cc1)NCCO` (stereo not shown) [Compound 1063] the value was 8 to 40 nM.
For `OC[C@@H](O)COc1ccc([C@H]2c3[nH]c4ccc(Cl)cc4c3CCN2c2nc(C(F)(F)F)cs2)cc1` [Compound 1633] the value was less than 8 nM; for `CC(C)COC(=O)N1CCc2c([nH]c3ccc(Cl)cc23)C1c1ccc(OCCNc2ncc[nH]2)cc1` (stereo not shown) [Compound 1409], 200 to 1000 nM.
For `COc1ccc(C2c3[nH]c4ccc(SC)cc4c3CCN2C(=S)Oc2ccc(F)cc2)cc1` (stereo not shown) [Compound 1486] the value was 8 to 40 nM; for `COc1ccc(C2c3[nH]c4cccc(Cl)c4c3CCN2C(=O)Oc2ccc(Br)cc2)cc1` (stereo not shown) [Compound 1532], 40 to 200 nM.
With `CCOC(=O)N1CCc2c([nH]c3ccc(Cl)cc23)C1c1ccc(OCCCOCCOC)cc1` (stereo not shown) [Compound 1396], the EC50 was more than 1000 nM.
In turn, `CC(C)OC(=O)N1CCc2c([nH]c3ccc(Cl)cc23)C1c1ccc(OCCCN2CCOCC2)cc1` (stereo not shown) [Compound 1102] gave a concentration giving a half-maximal response (EC50) of less than 8 nM.
For `CC(C)COC(=O)N1CCc2c([nH]c3ccc(Cl)cc23)C1c1ccc(OCC[C@H]2COC(C)(C)O2)cc1` (stereo partly shown) [Compound 1165] the value was less than 8 nM.
For `CCOC(=O)N1CCc2c([nH]c3ccc(Cl)cc23)[C@@H]1c1ccc(Oc2ncccn2)cc1` [Compound 1573] the value was less than 8 nM.
Compound `O=C(Oc1ccc(Cl)cc1)N1CCc2c([nH]c3ccc(Cl)cc23)C1c1ccc(OCCCN2CCC(O)CC2)cc1` (stereo not shown) [Compound 1537] showed an EC50 of less than 8 nM.
Next, `CCOC(=O)N1CCc2c([nH]c3ccc(Cl)cc23)[C@@H]1c1ccc(OCCCNC2CCCC2)cc1` [Compound 1236]: 8 to 40 nM; `C=CCOC(=O)N1CCc2c([nH]c3ccc(Cl)cc23)C1c1ccc(OCCCn2nccn2)cc1` (stereo not shown) [Compound 1081]: less than 8 nM; `CCOC(=O)N1CCc2c([nH]c3ccc(Cl)cc23)C1c1ccc(OCC(O)CNC(=O)c2ccccn2)cc1` (stereo not shown) [Compound 1469]: less than 8 nM.
`CC(C)OC(=O)N1CCc2c([nH]c3ccc(Cl)cc23)[C@@H]1c1ccc(OCC[C@H](O)CO)cc1` [Compound 1295] showed an EC50 of less than 8 nM.
Next, `C=C(C)OC(=O)N1CCc2c([nH]c3ccc(Cl)cc23)C1c1ccc(OCC2OCCO2)cc1` (stereo not shown) [Compound 1046]: 8 to 40 nM; `O=C(Oc1ccc(Cl)cc1)N1CCc2c([nH]c3ccc(Cl)cc23)[C@@H]1c1ccc(OC2CCN(CCN3CCOCC3)CC2)cc1` [Compound 1682]: less than 8 nM.
Next, `COc1ccc(C2c3[nH]c4ccc(Cl)cc4c3CCN2C(=O)C(=O)Oc2ccccc2)cc1` (stereo not shown) [Compound 1724]: more than 1000 nM; `O=C(OC1CCCC1)N1CCc2c([nH]c3ccc(Cl)cc23)[C@@H]1c1ccc(OCC[C@H](O)CO)cc1` [Compound 1320]: less than 8 nM.
Next, `CCOC(=O)N1CCc2c([nH]c3ccc(Cl)cc23)[C@@H]1c1ccc(OCCC(O)CN2CCOCC2)cc1` (stereo partly shown) [Compound 1272]: less than 8 nM; `CCOC(=O)N1CCc2c([nH]c3ccc(Cl)cc23)C1c1cccc(OCCCN2CCOCC2)c1` (stereo not shown) [Compound 1114]: 8 to 40 nM; `C=CCCOC(=O)N1CCc2c([nH]c3ccc(Cl)cc23)C1c1ccc(OCC2OCCO2)cc1` (stereo not shown) [Compound 1045]: less than 8 nM.
As for `O=C(Oc1ccc(Cl)cc1)N1CCc2c([nH]c3ccc(Cl)cc23)[C@@H]1c1ccc(OC2CCN(CC[C@H](O)CO)CC2)cc1` [Compound 1703], the EC50 lay in the range of 200 to 1000 nM.
For `[H]/N=c1\scnn1CCOc1ccc(C2c3[nH]c4ccc(Cl)cc4c3CCN2C(=O)OCC#CC)cc1` (stereo not shown) [Compound 1403] the value was less than 8 nM; for `O[C@@H](CCOc1ccc([C@H]2c3[nH]c4ccc(Cl)cc4c3CCN2c2ncccn2)cc1)CN1CCCCC1` [Compound 1304], less than 8 nM; for `O=C(OCc1ccccc1)N1CCc2c([nH]c3ccc(Cl)cc23)C1c1ccc(OCCCN2CCOCC2)cc1` (stereo not shown) [Compound 1106], less than 8 nM.
Next, `CCOC(=O)N1CCc2c([nH]c3ccc(Cl)cc23)[C@@H]1c1ccc(OCCC(O)CNS(=O)(=O)C2CC2)cc1` (stereo partly shown) [Compound 1624]: less than 8 nM.
For `COc1ccc(C2c3[nH]c4ccc(Cl)cc4c3CCN2C(=O)C(=O)NC2CCCC2)cc1` (stereo not shown) [Compound 1710] the value was 40 to 200 nM.
With `C=CCOC(=O)N1CCc2c([nH]c3ccc(Cl)cc23)C1c1ccc(OCCCN2CCOCC2)cc1` (stereo not shown) [Compound 1079], the EC50 was less than 8 nM.
In turn, `CCOC(=O)N1CCc2c([nH]c3ccc(Cl)cc23)[C@@H]1c1ccc(Oc2ncc(CN3CCOCC3)s2)cc1` [Compound 1656] had an EC50 of less than 8 nM.
For `OCCCOc1ccc([C@H]2c3[nH]c4ccc(Cl)cc4c3CCN2c2nc(C(F)(F)F)cs2)cc1` [Compound 1632] the value was less than 8 nM; for `Cc1ccc(C(=O)N2CCc3c([nH]c4ccc(Cl)cc34)C2c2ccc(OCCCN3CCOCC3)cc2)cc1` (stereo not shown) [Compound 1190], 40 to 200 nM; for `O=C(OCc1ccccc1)N1CCc2c([nH]c3ccc(Cl)cc23)C1c1ccc(OCC2OCCO2)cc1` (stereo not shown) [Compound 1056], less than 8 nM.
For `COc1ccc(C2c3[nH]c4ccc(Cl)cc4c3CCN2C(=O)Oc2ccc(Cl)cc2)cc1OCCCCN1CCOCC1` (stereo not shown) [Compound 1097] the value was 40 to 200 nM.
Next, `CCOC(=O)N1CCc2c([nH]c3ccc(Cl)cc23)[C@@H]1c1ccc(OC[C@H](O)CO)cc1` [Compound 1221]: less than 8 nM; `CCOC(=O)N1CCc2c([nH]c3ccc(Br)cc23)C1c1ccc(C(=O)N(C)CC(=O)O)cc1` (stereo not shown) [Compound 1390]: more than 1000 nM.
Take `CCOC(=O)N1CCc2c([nH]c3ccc(Cl)cc23)[C@@H]1c1ccc(OCCC(O)CNC(=O)OCCOC)cc1` (stereo partly shown) [Compound 1621]: the 50% effective concentration (EC50) was less than 8 nM.
For `CCOC(=O)N1CCc2c([nH]c3ccc(Cl)cc23)C1c1ccc(OCC#N)cc1` (stereo not shown) [Compound 1543] the value was less than 8 nM.
Next, `CCOC(=O)N1CCc2c([nH]c3ccc(Cl)cc23)[C@@H]1c1ccc(Oc2nccnc2C)cc1` [Compound 1654]: less than 8 nM; `C[Si](C)(C)CCS(=O)(=O)N1CCC(Oc2ccc(C3c4[nH]c5ccc(Cl)cc5c4CCN3C(=O)Oc3ccc(F)cc3)cc2)CC1` (stereo not shown) [Compound 1580]: less than 8 nM.
For `CCOC(=O)N1CCc2c([nH]c3ccc(Cl)cc23)C1c1cccc(C(=O)N(C)CC(=O)O)c1` (stereo not shown) [Compound 1389] the value was more than 1000 nM.
In turn, `O=C(Oc1ccc(Cl)cc1)N1CCc2c([nH]c3ccc(Cl)cc23)[C@@H]1c1ccc(OCCC(O)CN(CCO)CCO)cc1` (stereo partly shown) [Compound 1280] came in with an EC50 of 8 to 40 nM.
For `OC[C@H](O)COc1ccc([C@H]2c3[nH]c4ccc(Cl)cc4c3CCN2c2nc(C(F)(F)F)cs2)cc1` [Compound 1634] the value was less than 8 nM.
For `COc1ccc(C2c3[nH]c4ccc(Cl)cc4c3CCN2C(=O)C(=O)OC2CCCC2)cc1` (stereo not shown) [Compound 1719] the value was more than 1000 nM; for `CCOC(=O)N1CCc2c([nH]c3ccc(Cl)cc23)[C@@H]1c1ccc(OCC(CC)(CO)CO)cc1` [Compound 1324], less than 8 nM; for `COc1ccc(C2c3[nH]c4ccc(Cl)cc4c3CCN2C(=O)Oc2ccc(Cl)cc2)cc1OCCN1CCOCC1` (stereo not shown) [Compound 1095], 200 to 1000 nM.
